Source: US10927096B2, “Ester substituted ion channel blockers and methods for use” (Nocion Therapeutics, Inc., priority 2019, dated 2021)

What was measured:
[1] = target: T1, NaV1.7 (Homo sapiens, UniProt Q15858); assay: Whole cell patch clamp, external block of NaV1.7 current; type: cell-based; conditions: % inhibition, compound in external solution, manual whole cell patch clamp, read-out: Nav1.7 Extracellular Inhibition; for inhibition at 1 µM: test concentration 1 μM; for inhibition at 3 µM: test concentration 3 μM; for inhibition at 100 µM: test concentration 100 μM; for inhibition at 10 µM: test concentration 10 μM; for inhibition at 30 µM: test concentration 30 μM
T1 construct: expressed in transfected cells; host or cells: HEK293, tetracycline-inducible
Procedure: (§1) NaV1.7 was expressed upon induction with tetracycline. Cells were cultured in DMEM containing 10% dialyzed Fetal Bovine Serum (VWR, Radnor, Pa.), 1% Glutamax (VWR, Radnor, Pa.), 1% Penicillin-Streptomycin (VWR, Radnor, Pa.), 100 mg/L Hygromycin (Thermo Fisher Scientific, Waltham, Mass. and 5 mg/L Blasticidin (Alfa Aesar, Haverhill, Mass.). Cells were grown and maintained at 37° C. in a humidified environment containing 10% C02 in air. Cells were detached from the culture flask for passage and harvested using 0.05% Trypsin-EDTA (Thermo Fisher Scientific, Waltham, Mass.). To induce NaV1.7, cells were induced with tetracycline (0.1-1 μg/mL, IBI Scientific, Peosta, Iowa) the day before recording and plated onto 24-well plates. Cells were washed with DPBS (VWR, Radnor, Pa.), trypsinized and then triturated five times in 10 mL of growth media to break apart cell aggregates. For one 24-well plate, 2 mL of cell suspension was mixed with 23 mL of fresh growth media and 0.1-1 μg/mL tetracycline added. 1 ml of mixed media with cells was then added to each well of a 24-well plate, with a 12 mm coverslip already placed in the bottom of the well. Cells were then incubated in 37° C. and 10% CO2 overnight.
(§2) The intracellular solution contained the following (in mM) CsCl 135, NaCl 10, EGTA 10, HEPES 10, MgCl2 2, adjusted to pH 7.2 with CsOH. The external solution was a normal Ringer solution containing (in mM) NaCl 155, HEPES 10, glucose 10, KCl 3.5, CaCl2 1.5, MgCl2 1 adjusted to pH 7.4 with NaOH. CsCl is from Alfa Aesar, Haverhill, Mass. All other chemicals are from Sigma-Aldrich, St. Louis, Mo. In order to test the degree of internal block by test compounds the compounds were dissolved in internal solution at the indicated test concentration. […] In order to test the degree of external block by test compounds the compounds were dissolved in external solution at the indicated test concentration.
(§3) 18-24 hours after cells were induced with tetracycline, coverslips were placed into a chamber filled with Normal Ringer solution at room temperature and the chamber placed on a microscope. Pipettes were pulled from borosilicate glass on a P97 puller (Sutter Instrument, Novato, Calif.) and polished with a MF-830 Microforge (Narishige International USA, Inc, Amityville, N.Y.) to have a resistance of 1.5-2.5 MΩ when filled with CsCl internal solution at room temperature. Healthy cells (those that are round and translucent with no visible blemishes) were chosen for seal formation. A seal was formed between the pipette and the cell, and a brief pulse of suction was used to “break in” and establish the whole-cell configuration. The membrane potential was held at −100 mV before the voltage protocol began. Only cells with series resistance between 1.5-5 MΩ were retained for analysis. The voltage protocol was as follows: Cells were held at −100 mV for 12 ms followed by a hyperpolarizing step to −105 mV for 12 ms to monitor the leak. Cells were then stepped back to −100 mV for 40 ms. Cells were then depolarized to −20 mV for 10 ms and then returned to −100 mV for 26 ms (The FIGURE).
Once the recording was started, the voltage protocol was run at 30 second intervals for 5 minutes to get a stable baseline. This is followed by 5 Hz stimulation of the same voltage protocol run until the end of experiment. […] The test compound is added for 5 minutes before washing out with normal Ringer's solution. Currents were recorded using PatchMaster software with Heka EPC10 (HEKA Electronics, Lambrecht, Germany). Only cells with inward current amplitudes at −20 mV between 400 pA and 4 nA were accepted. In addition, cells having leak currents greater than 10% of their current amplitudes were discarded.
(§4) The data was plotted using the Patchmaster software (HEKA Electronics, Lambrecht, Germany) and analyzed by plotting the minimum current during the voltage step to −20 mV (peak inward current) as a function of time. […]

[2] = PAMPA membrane permeability assay; type: physicochemical; conditions: pH 7.4 buffer, GIT lipid, 4 hours incubation
Procedure: The PAMPA assay (pION, Inc., Woburn Mass.) was used to determine the ability of compounds of the invention to cross an artificial lipid membrane by passive diffusion. Test compounds were dissolved in DMSO (10 mM) and diluted 200-fold in buffer (pION Inc., pH 7.4) to provide 50 uM stock solutions. Buffer (150 μL) was added to a UV blank plate and stock solutions (150 μL) were transferred to a UV reference plate. The blank and reference spectrum were read using a spectrophotometer. Stock solutions (200 μL) were added to the donor plate of the PAMPA sandwich plate and an accept plate painted with GIT lipid (pION Inc, 5 μL) was placed on top. Buffer (200 μL) was added to the acceptor plate and the PAMPA sandwich plate was incubated for 4 hours. Aliquots (150 μL) from the acceptor plate were added to a UV plate and read as acceptor spectrum. Aliquots (150 μL) of the donor solutions were added to a UV analysis plate and read as donor spectrum. The permeability coefficient of test compounds was calculated using PAMPA Explorer™ software (version 3.5.0.4) based on the AUC of the reference plate, the donor plate, and the acceptor plate.
The PAMPA permeability results (10^−6 cm/s) of representative compounds are reported as “+” (<0.1 10^−6 cm/s), “++” (0.1-2.0 10^−6 cm/s), “+++” (2.0-10.010^−6 cm/s) or “++++” (>10.0 10^−6 cm/s).

[3] = target: T1, NaV1.7; assay: Whole cell patch clamp, internal block of NaV1.7 current; type: cell-based; conditions: % inhibition at 1 μM test concentration, compound in internal solution, manual whole cell patch clamp
Procedure: as §1, §2, §3
Once the recording was started, the voltage protocol was run at 30 second intervals for 5 minutes to get a stable baseline. This was followed by four 30-second periods of 5 Hz stimulation of the same voltage protocol separated by 1 minute of rest which was then followed by 0.33 Hz stimulation after the last train. Currents were recorded using PatchMaster software with Heka EPC10 (HEKA Electronics, Lambrecht, Germany). Only cells with inward current amplitudes at −20 mV between 400 pA and 4 nA were accepted. In addition, cells having leak currents greater than 10% of their current amplitudes were discarded.
as §4

T1 sequence (Q15858 whole entry): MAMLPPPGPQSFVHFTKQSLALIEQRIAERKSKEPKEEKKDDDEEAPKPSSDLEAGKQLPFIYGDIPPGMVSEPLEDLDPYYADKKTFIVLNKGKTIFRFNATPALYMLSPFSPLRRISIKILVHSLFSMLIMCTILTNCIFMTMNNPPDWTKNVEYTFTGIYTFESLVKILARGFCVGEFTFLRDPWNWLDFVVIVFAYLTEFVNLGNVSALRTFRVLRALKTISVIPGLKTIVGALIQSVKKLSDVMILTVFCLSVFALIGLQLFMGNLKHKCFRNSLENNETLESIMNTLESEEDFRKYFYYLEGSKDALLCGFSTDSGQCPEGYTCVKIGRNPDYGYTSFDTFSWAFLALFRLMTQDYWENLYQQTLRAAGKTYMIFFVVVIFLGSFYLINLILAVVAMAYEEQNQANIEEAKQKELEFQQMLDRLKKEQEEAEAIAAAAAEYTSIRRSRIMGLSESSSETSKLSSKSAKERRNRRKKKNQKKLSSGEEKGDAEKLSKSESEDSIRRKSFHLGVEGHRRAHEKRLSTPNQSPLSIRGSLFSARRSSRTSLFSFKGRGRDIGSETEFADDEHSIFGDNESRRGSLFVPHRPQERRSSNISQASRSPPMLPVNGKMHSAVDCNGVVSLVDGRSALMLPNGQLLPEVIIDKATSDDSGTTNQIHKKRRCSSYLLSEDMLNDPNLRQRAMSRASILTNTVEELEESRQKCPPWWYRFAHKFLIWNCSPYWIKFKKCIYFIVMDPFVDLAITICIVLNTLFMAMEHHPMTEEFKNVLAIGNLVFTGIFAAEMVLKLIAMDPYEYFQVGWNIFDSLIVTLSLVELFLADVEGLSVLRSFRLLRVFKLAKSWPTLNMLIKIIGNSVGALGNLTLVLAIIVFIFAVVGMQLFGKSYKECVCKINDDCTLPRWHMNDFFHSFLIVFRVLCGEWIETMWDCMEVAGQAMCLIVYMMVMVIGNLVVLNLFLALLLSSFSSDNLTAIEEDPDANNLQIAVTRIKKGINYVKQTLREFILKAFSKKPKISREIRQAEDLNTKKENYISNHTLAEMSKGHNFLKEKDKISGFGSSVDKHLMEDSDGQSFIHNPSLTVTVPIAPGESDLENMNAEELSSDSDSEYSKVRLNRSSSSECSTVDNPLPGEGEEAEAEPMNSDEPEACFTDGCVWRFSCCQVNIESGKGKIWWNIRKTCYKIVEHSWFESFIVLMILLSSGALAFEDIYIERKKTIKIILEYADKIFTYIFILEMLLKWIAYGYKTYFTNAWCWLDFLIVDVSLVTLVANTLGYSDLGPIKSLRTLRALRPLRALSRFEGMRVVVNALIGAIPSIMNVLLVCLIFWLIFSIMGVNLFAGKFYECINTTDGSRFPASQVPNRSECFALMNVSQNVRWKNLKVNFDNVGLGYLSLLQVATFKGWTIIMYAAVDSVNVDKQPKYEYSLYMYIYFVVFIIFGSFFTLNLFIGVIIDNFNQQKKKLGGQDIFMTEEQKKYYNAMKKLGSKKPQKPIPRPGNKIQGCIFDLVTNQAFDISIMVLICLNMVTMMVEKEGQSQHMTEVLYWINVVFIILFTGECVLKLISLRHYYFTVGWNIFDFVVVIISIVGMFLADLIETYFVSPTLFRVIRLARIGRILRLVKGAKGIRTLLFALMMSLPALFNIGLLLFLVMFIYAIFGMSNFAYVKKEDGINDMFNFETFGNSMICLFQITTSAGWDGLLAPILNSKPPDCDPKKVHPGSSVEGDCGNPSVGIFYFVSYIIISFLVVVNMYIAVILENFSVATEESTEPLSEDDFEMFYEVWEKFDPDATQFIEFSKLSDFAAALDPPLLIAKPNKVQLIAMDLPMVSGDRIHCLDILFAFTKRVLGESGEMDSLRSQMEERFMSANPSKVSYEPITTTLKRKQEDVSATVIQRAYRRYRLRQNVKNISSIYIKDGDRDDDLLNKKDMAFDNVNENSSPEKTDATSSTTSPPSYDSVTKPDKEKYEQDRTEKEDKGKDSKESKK

CCOC(=O)c1cccc(C)c1NC(=O)C[N+]1(Cc2ccccc2)CCCCCC1 [Compound 2A]
inhibition at 1 µM [1]: < 40%

CCOC(=O)c1cccc(C)c1NC(=O)C[N+]1(Cc2ccccc2)CCCCC1 [Compound 4A]
inhibition at 3 µM [1]: < 40%

COC(=O)c1cccc(C)c1NC(=O)C[N+]1(Cc2ccccc2)CCCCC1 [Compound 3A]
inhibition at 100 µM [1]: 40 to 70%

CCOC(=O)c1cccc(C)c1NC(=O)C[N+]1(Cc2ccccc2)CCCC1 [Compound 9A]
inhibition at 10 µM [1]: < 40%

CCOC(=O)c1cccc(C)c1NC(=O)C[N+]1(Cc2ccccc2)CCCCCCC1 [Compound 10A]
inhibition at 1 µM [1]: 40 to 70%

CCOC(=O)C1CCC[N+](CC(=O)Nc2c(C)cccc2C(=O)OC)(Cc2ccccc2)C1 (stereo not shown) [Compound 16A]
inhibition at 30 µM [1]: 40 to 70%

COC(=O)c1cccc(C)c1NC(=O)C[N+]1(Cc2ccccc2)CCCCCC1 [Compound 1A, 1-benzyl-1-(2-((2-(methoxycarbonyl)-6-methylphenyl)amino)-2-oxoethyl)azepan-1-ium Bromide]
inhibition at 3 µM [1]: < 40%

CCOC(=O)c1cccc(C)c1NC(=O)C[n+]1cccc(-c2ccccc2)c1 [Compound 67A]
inhibition at 10 µM [1]: < 40%

COC(=O)c1cccc(C)c1NC(=O)C[n+]1cccc(-c2ccccc2)c1 [Compound 66A, 1-(2-((2-(methoxycarbonyl)-6-methylphenyl)amino)-2-oxoethyl)-3-phenylpyridin-1-ium Bromide]
inhibition at 30 µM [1]: 40 to 70%

CC[N+]1(CC(=O)Nc2c(C)cccc2C(=O)OC)CCCC(c2ccccc2)C1 (stereo not shown) [Compound 65A]
inhibition at 10 µM [1]: 40 to 70%

CC[N+]1(CC(=O)Nc2c(C)cccc2C(=O)OC)CCCC(C(=O)N(C)C)C1.[I-] (stereo not shown) [Compound 44]
PAMPA (10^−6 cm/s) [2]: + (<0.1 10^−6 cm/s) | NaV1.7 Intracellular Inhibition [3]: + (<30%)

CCCN(CCC)C(=O)C1CCC[N+](CC(=O)Nc2c(C)cccc2C(=O)OC)(Cc2ccccc2)C1.[Br-] (stereo not shown) [Compound 39]
PAMPA (10^−6 cm/s) [2]: + (<0.1 10^−6 cm/s) | NaV1.7 Intracellular Inhibition [3]: + (<30%)

COC(=O)c1cccc(C)c1NC(=O)C[N+]1(CC(N)=O)CCCC(c2ccccc2)C1 (stereo not shown) [Compound 61A]
inhibition at 100 µM [1]: 40 to 70%

CNC(=O)C[N+]1(CC(=O)Nc2c(C)cccc2C(=O)OC)CCCC(c2ccccc2)C1 (stereo not shown) [Compound 59A, 1-(2-((2-(methoxycarbonyl)-6-methylphenyl)amino)-2-oxoethyl)-1-(2-(methylamino)-2-oxoethyl)-3-phenylpiperidin-1-ium Bromide]
inhibition at 10 µM [1]: < 40%
